According to patent publication US20250051344A1, “BIFUNCTIONAL SELECTIVE DEGRADERS OF SMARCA2 AND THERAPEUTIC USES THEREOF” (Nurix Therapeutics, Inc., priority 2023, published 2025):

What was measured:
SMARCA4 = target: T1, SMARCA4 (Homo sapiens, UniProt P51532); experiment: Cellular degradation assay, SMARCA4 (Table 1); assay type: cell-based
T1 construct: endogenous in cells

SMARCA2 = target: T2, SMARCA2 (Homo sapiens, UniProt P51531); experiment: SMARCA2 Cellular Degradation Assay (Western blot analysis on Jess platform); assay type: cell-based; settings: for DC50 / Dmax: cellular degradation; for Fold Selectivity SMARCA4/2: ratio DC50 SMARCA4 / DC50 SMARCA2
T2 construct: endogenous in cells
T2 sequence (P51531 whole entry, species assumed): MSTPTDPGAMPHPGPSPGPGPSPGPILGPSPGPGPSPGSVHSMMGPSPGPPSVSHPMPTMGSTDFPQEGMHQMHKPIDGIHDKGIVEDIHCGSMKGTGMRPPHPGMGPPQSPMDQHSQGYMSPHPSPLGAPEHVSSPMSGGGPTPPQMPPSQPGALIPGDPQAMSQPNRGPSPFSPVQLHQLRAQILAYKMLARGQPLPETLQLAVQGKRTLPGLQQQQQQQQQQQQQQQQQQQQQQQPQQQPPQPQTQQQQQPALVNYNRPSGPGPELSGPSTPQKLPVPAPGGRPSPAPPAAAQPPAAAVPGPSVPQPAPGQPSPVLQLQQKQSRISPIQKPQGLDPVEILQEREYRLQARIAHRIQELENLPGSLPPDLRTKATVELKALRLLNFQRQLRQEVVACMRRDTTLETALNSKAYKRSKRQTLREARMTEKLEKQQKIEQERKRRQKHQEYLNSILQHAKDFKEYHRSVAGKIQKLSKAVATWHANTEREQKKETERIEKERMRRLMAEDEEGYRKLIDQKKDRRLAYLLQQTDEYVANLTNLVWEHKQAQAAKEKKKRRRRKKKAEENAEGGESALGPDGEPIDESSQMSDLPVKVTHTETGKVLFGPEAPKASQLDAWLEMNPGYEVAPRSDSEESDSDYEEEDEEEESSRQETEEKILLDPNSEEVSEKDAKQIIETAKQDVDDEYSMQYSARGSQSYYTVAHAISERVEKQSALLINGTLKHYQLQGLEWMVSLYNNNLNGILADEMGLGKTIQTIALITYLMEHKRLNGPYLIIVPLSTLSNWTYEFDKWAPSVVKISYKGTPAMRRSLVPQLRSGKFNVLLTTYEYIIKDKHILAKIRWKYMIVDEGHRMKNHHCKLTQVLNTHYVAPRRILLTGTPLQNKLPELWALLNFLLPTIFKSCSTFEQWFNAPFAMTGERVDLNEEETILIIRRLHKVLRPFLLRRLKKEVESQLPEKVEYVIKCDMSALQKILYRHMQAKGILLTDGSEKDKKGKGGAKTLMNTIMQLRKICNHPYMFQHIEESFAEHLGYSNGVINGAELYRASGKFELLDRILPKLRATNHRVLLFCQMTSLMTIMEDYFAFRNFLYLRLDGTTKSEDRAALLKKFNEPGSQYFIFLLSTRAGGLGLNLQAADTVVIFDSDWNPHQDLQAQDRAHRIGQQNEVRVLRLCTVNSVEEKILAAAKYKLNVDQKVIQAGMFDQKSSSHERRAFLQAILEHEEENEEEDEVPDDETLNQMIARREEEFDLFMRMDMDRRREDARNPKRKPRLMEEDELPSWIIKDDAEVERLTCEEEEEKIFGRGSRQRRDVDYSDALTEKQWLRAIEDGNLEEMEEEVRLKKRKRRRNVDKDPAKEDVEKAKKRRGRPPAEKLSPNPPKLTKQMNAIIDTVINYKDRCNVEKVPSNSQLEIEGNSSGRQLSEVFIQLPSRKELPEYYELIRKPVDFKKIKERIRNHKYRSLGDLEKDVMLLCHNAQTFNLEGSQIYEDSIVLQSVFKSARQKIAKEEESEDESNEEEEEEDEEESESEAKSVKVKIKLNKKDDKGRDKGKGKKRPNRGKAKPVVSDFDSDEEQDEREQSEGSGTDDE
In short: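 Percent SMARCA2 remaining relative to vehicle was derived from capillary Western peak areas, each normalized to β-actin after capillary background subtraction. Samples were tumor-derived cell lysates, 5 μg total protein loaded, heated at 95° C. for 5 minutes before the Jess run.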

T1 sequence (P51532 whole entry, species assumed): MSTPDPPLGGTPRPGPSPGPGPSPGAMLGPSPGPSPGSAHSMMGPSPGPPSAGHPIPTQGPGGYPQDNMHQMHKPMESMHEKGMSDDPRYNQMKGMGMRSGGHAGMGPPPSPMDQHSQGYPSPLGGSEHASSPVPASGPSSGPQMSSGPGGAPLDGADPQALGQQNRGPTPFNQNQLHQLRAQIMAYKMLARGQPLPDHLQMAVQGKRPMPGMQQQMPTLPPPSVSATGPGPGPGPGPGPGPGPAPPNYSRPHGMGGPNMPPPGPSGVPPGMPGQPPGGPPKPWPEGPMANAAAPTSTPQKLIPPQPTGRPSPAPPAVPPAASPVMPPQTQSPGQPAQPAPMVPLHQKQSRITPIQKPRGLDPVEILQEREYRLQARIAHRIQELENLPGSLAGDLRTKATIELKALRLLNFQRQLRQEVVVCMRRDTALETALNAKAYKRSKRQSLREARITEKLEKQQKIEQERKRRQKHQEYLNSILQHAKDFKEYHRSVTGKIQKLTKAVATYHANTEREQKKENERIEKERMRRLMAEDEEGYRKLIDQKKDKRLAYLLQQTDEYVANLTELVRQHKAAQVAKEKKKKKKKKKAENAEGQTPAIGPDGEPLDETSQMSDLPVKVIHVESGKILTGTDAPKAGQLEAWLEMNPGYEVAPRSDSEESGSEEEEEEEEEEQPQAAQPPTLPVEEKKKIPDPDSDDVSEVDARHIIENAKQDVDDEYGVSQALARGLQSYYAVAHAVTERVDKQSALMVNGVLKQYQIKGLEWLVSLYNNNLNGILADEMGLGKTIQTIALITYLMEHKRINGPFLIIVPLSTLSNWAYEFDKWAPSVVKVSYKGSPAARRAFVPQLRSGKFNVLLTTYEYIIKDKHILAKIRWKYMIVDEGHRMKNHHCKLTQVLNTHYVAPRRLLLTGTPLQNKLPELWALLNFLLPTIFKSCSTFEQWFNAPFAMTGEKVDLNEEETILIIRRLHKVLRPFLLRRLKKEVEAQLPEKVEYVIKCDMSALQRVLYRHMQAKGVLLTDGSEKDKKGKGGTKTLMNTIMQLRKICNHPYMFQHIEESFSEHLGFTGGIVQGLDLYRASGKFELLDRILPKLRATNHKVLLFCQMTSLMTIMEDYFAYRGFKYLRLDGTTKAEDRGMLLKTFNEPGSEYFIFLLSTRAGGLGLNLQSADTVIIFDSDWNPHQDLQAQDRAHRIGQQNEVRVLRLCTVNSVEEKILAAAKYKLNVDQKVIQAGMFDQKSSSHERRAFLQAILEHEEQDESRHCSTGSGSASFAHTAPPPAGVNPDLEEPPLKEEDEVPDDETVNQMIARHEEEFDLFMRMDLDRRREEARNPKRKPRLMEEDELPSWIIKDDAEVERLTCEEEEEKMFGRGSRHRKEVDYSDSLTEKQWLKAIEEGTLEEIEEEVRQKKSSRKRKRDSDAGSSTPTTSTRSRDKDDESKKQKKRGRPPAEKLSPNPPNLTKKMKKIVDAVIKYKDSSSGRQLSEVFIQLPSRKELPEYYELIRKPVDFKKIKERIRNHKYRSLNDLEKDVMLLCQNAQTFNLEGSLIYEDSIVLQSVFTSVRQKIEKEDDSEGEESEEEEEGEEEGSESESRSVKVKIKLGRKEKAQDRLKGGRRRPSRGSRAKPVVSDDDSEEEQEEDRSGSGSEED

O=C1CC[C@H](c2ccc(N3CCC(CN4CCC(NC(=O)C5(C6CCOCC6)CCN(c6cnnc(-c7ccccc7O)c6)CC5)CC45CCC5)CC3)cc2)C(=O)N1 (stereo partly drawn) [Example 161, N-{5-[(1-{4-[(3R)-2,6-dioxopiperidin-3-yl]phenyl}piperidin-4-yl)methyl]-5-azaspiro[3.5]nonan-8-yl}-1-[6-(2-hydroxyphenyl)pyridazin-4-yl]-4-(oxan-4-yl)piperidine-4-carboxamide]
Dmax (SMARCA4): 32.4% | DC50 (SMARCA2): 31.9 nM | Dmax (SMARCA2): 70.8% | Fold Selectivity SMARCA4/2 (SMARCA2): 313

CN(C(=O)C1(c2ccccc2)CCN(c2cnnc(-c3ccccc3O)c2)CC1)C1CCN(CCC2CCN(c3ccc(C4CCC(=O)NC4=O)cn3)CC2)CC1 (racemic) [Example 69, rac-N-(1-(2-(1-(5-(2,6-dioxopiperidin-3-yl)pyridin-2-yl)piperidin-4-yl)ethyl)piperidin-4-yl)-1-(6-(2-hydroxyphenyl)pyridazin-4-yl)-N-methyl-4-phenylpiperidine-4-carboxamide]
Dmax (SMARCA4): 44.1% | DC50 (SMARCA2): 6.23 nM | Dmax (SMARCA2): 85.3% | Fold Selectivity SMARCA4/2 (SMARCA2): 1605

O=C1CCC(c2ccc(N3CCC(CN4CC5(C4)CN(CC4(c6ccccc6)CCN(c6cnnc(-c7ccccc7O)c6)CC4)C5)CC3)cc2)C(=O)N1 (racemic) [Example 44, rac-(3R)-3-[4-(4-{[6-({-[6-(2-hydroxyphenyl)pyridazin-4-yl]-4-phenylpiperidin-4-yl}methyl)-2,6-diazaspiro[3.3]heptan-2-yl]methyl}piperidin-1-yl)phenyl]piperidine-2,6-dione]
DC50 (SMARCA4): 24.6 nM | Dmax (SMARCA4): 77.5% | DC50 (SMARCA2): 6.22 nM | Dmax (SMARCA2): 86.6% | Fold Selectivity SMARCA4/2 (SMARCA2): 3.95

CN(C(=O)C1(c2ccc(F)cc2)CCN(c2cnnc(-c3ccccc3O)c2)CC1)C1CCN(CCC2CCN(c3ccc(C4CCC(=O)NC4=O)cc3)CC2)CC1 (racemic) [Example 134, rac-N-{1-[2-(1-{4-[(3R)-2,6-dioxopiperidin-3-yl]phenyl}piperidin-4-yl)ethyl]piperidin-4-yl}-4-(4-fluorophenyl)-1-[6-(2-hydroxyphenyl)pyridazin-4-yl]-n-methylpiperidine-4-carboxamide]
Dmax (SMARCA4): 31.1% | DC50 (SMARCA2): 8.79 nM | Dmax (SMARCA2): 87.1% | Fold Selectivity SMARCA4/2 (SMARCA2): 1138

O=C1CC[C@H](c2ccc(N3CCC(CN[C@H]4CC[C@H](NC(=O)C5(c6ccccc6)CCN(c6cnnc(-c7ccccc7O)c6)CC5)CC4)CC3)cc2)C(=O)N1 (racemic) [Example 175, 1-[6-(2-hydroxyphenyl)pyridazin-4-yl]-4-phenyl-N-[(1r,4r)-4-{[(1-{4-[(3RS)-2,6-dioxopiperidin-3-yl]phenyl}piperidin-4-yl)methyl]amino}cyclohexyl]piperidine-4-carboxamide]
Dmax (SMARCA4): 35.6% | DC50 (SMARCA2): 29.8 nM | Dmax (SMARCA2): 60.2% | Fold Selectivity SMARCA4/2 (SMARCA2): 335

CC1(NC(=O)C2(c3ccccc3)CCN(c3cnnc(-c4ccccc4O)c3)CC2)CCN(C(=O)CN2CCC(c3ccc(N[C@@H]4CCC(=O)NC4=O)cc3)CC2)CC1 (racemic) [Example 86, rac-(r)-n-(1-(2-(4-(4-((2,6-dioxopiperidin-3-yl)amino)phenyl)piperidin-1-yl)acetyl)-4-methylpiperidin-4-yl)-1-(6-(2-hydroxyphenyl)pyridazin-4-yl)-4-phenylpiperidine-4-carboxamide]
Dmax (SMARCA4): 53.7% | DC50 (SMARCA2): 22.1 nM | Dmax (SMARCA2): 70.5% | Fold Selectivity SMARCA4/2 (SMARCA2): 452

O=C1CCC(c2ccc(N3CCN(C(=O)C4CC45CCN(C(=O)C4(c6ccccc6)CCN(c6cnnc(-c7ccccc7O)c6)CC4)C5)CC3)cc2)C(=O)N1 (racemic) [Example 29, rac-(3R)-3-{4-[4-(5-{1-[6-(2-hydroxyphenyl)pyridazin-4-yl]-4-phenylpiperidine-4-carbonyl}-5-azaspiro[2.4]heptane-1-carbonyl)piperazin-1-yl]phenyl}piperidine-2,6-dione]
Dmax (SMARCA4): 0.46% | Dmax (SMARCA2): 5.79% | Fold Selectivity SMARCA4/2 (SMARCA2): 1

O=C1CCC(c2ccc(N3CCC(CN4CC5(C4)CN(C(=O)C4(c6cccc(Cl)c6)CCN(c6cnnc(-c7ccccc7O)c6)CC4)C5)CC3)cc2)C(=O)N1 (racemic) [Example 27, rac-(3R)-3-{4-[4-({6-[4-(3-chlorophenyl)-1-[6-(2-hydroxyphenyl)pyridazin-4-yl]piperidine-4-carbonyl]-2,6-diazaspiro[3.3]heptan-2-yl}methyl)piperidin-1-yl]phenyl}piperidine-2,6-dione]
DC50 (SMARCA4): 132 nM | Dmax (SMARCA4): 56.5% | DC50 (SMARCA2): 18.2 nM | Dmax (SMARCA2): 72.8% | Fold Selectivity SMARCA4/2 (SMARCA2): 7.24

COC1(C(=O)NCC2(c3ccccc3)CCN(c3cnnc(-c4ccccc4O)c3)CC2)CCN(CCC2CCN(c3ccc([C@H]4CCC(=O)NC4=O)cc3)CC2)CC1 (racemic) [Example 83, rac-(r)-1-(2-(1-(4-(2,6-dioxopiperidin-3-yl)phenyl)piperidin-4-yl)ethyl)-n-((1-(6-(2-hydroxyphenyl)pyridazin-4-yl)-4-phenylpiperidin-4-yl)methyl)-4-methoxypiperidine-4-carboxamide]
DC50 (SMARCA4): 20.2 nM | Dmax (SMARCA4): 73.3% | DC50 (SMARCA2): 2.3 nM | Dmax (SMARCA2): 91.8% | Fold Selectivity SMARCA4/2 (SMARCA2): 9

COC1(C(=O)N(C)C2CCN(CCC3CCN(c4ccc(C5CCC(=O)NC5=O)c(F)c4)CC3)CC2)CCN(c2cnnc(-c3ccccc3O)c2)CC1 (racemic) [Example 71, rac-N-(1-(2-(1-(4-(2,6-dioxopiperidin-3-yl)-3-fluorophenyl)piperidin-4-yl)ethyl)piperidin-4-yl)-1-(6-(2-hydroxyphenyl)pyridazin-4-yl)-4-methoxy-n-methylpiperidine-4-carboxamide]
Dmax (SMARCA4): 32.2% | DC50 (SMARCA2): 8.07 nM | Dmax (SMARCA2): 81.6% | Fold Selectivity SMARCA4/2 (SMARCA2): 1239

COc1ccccc1C1(C(=O)N2CC3(C2)CN(C2COC4(CCN(c5ccc([C@H]6CCC(=O)NC6=O)cc5)CC4)C2)C3)CCN(c2cnnc(-c3ccccc3O)c2)CC1 (mixture of isomers) [Example 106, (3R)-3-{4-[(3RS)-3-(6-{1-[6-(2-hydroxyphenyl)pyridazin-4-yl]-4-(2-methoxyphenyl)piperidine-4-carbonyl}-2,6-diazaspiro[3.3]heptan-2-yl)-1-oxa-8-azaspiro[4.5]decan-8-yl]phenyl}piperidine-2,6-dione]
DC50 (SMARCA4): 32.2 nM | Dmax (SMARCA4): 59.4% | DC50 (SMARCA2): 4.91 nM | Dmax (SMARCA2): 78.3% | Fold Selectivity SMARCA4/2 (SMARCA2): 7

CN(CC1(c2ccccc2)CCN(c2cnnc(-c3ccccc3O)c2)CC1)C(=O)C1CCN(CCC2CCN(c3ccc([C@H]4CCC(=O)NC4=O)cc3)CC2)C2(CCC2)C1 (mixture of isomers) [Example 146, rac-5-(2-(1-(4-((r)-2,6-dioxopiperidin-3-yl)phenyl)piperidin-4-yl)ethyl)-n-((1-(6-(2-hydroxyphenyl)pyridazin-4-yl)-4-phenylpiperidin-4-yl)methyl)-n-methyl-5-azaspiro[3.5]nonane-8-carboxamide]
DC50 (SMARCA4): 21.9 nM | Dmax (SMARCA4): 72.8% | DC50 (SMARCA2): 5.57 nM | Dmax (SMARCA2): 83% | Fold Selectivity SMARCA4/2 (SMARCA2): 4

CC1(C(=O)N2CC3(CN(CC4CCN(c5ccc([C@H]6CCC(=O)NC6=O)cc5)CC4)C3)C2)CCN(c2cnnc(-c3ccccc3O)c2)CC1 [Example 23, (3R)-3-(4-{4-[(6-{1-[6-(2-hydroxyphenyl)pyridazin-4-yl]-4-methylpiperidine-4-carbonyl}-2,6-diazaspiro[3.3]heptan-2-yl)methyl]piperidin-1-yl}phenyl)piperidine-2,6-dione]
Dmax (SMARCA4): 39.1% | DC50 (SMARCA2): 78.5 nM | Dmax (SMARCA2): 55.9% | Fold Selectivity SMARCA4/2 (SMARCA2): 127.44

O=C1CCC(c2ccc(N3C[C@@H]4CN(CC5CCN(C(=O)C6(c7ccccc7)CCN(c7cnnc(-c8ccccc8O)c7)CC6)CC5)C[C@H]4C3)cc2)C(=O)N1 (mixture of isomers) [Example 160, (3RS)-3-{4-[(3aS,6aS)-5-[(1-{1-[6-(2-hydroxyphenyl)pyridazin-4-yl]-4-phenylpiperidine-4-carbonyl}piperidin-4-yl)methyl]-octahydropyrrolo[3,4-c]pyrrol-2-yl]phenyl}piperidine-2,6-dione]
DC50 (SMARCA4): 104 nM | Dmax (SMARCA4): 71.4% | DC50 (SMARCA2): 12 nM | Dmax (SMARCA2): 87.7% | Fold Selectivity SMARCA4/2 (SMARCA2): 9

COC1(C(=O)N(C)C2CCN(CCC3CCN(c4ccc([C@H]5CCC(=O)NC5=O)cc4)CC3)CC2)CCN(c2cnnc(-c3ccccc3O)c2)CC1 [Example 196, (r)-n-(1-(2-(1-(4-(2,6-dioxopiperidin-3-yl)phenyl)piperidin-4-yl)ethyl)piperidin-4-yl)-1-(6-(2-hydroxyphenyl)pyridazin-4-yl)-4-methoxy-n-methylpiperidine-4-carboxamide]
Dmax (SMARCA4): 28% | DC50 (SMARCA2): 14 nM | Dmax (SMARCA2): 74% | Fold Selectivity SMARCA4/2 (SMARCA2): 714

O=C1CC[C@H](c2ccc(N3CCC(CN4CCCC4C4CCCN(C(=O)C5(c6ccccc6)CCN(c6cnnc(-c7ccccc7O)c6)CC5)C4)CC3)cc2)C(=O)N1 (stereo partly drawn) [Example 37, (3R)-3-[4-(4-{[2-(1-{1-[6-(2-hydroxyphenyl)pyridazin-4-yl]-4-phenylpiperidine-4-carbonyl}piperidin-3-yl)pyrrolidin-1-yl]methyl}piperidin-1-yl)phenyl]piperidine-2,6-dione]
Dmax (SMARCA4): 33.1% | Dmax (SMARCA2): 47.5% | Fold Selectivity SMARCA4/2 (SMARCA2): 1

CN(C(=O)C1(OC2CC2)CCN(c2cnnc(-c3ccccc3O)c2)CC1)C1CCN(CCC2CCN(c3ccc(C4CCC(=O)NC4=O)cc3)CC2)CC1 (racemic) [Example 124, rac-4-cyclopropoxy-N-{1-[2-(1-{4-[(3r)-2,6-dioxopiperidin-3-yl]phenyl}piperidin-4-yl)ethyl]piperidin-4-yl}-1-[6-(2-hydroxyphenyl)pyridazin-4-yl]-N-methylpiperidine-4-carboxamide]
Dmax (SMARCA4): 25.1% | DC50 (SMARCA2): 11.3 nM | Dmax (SMARCA2): 75.9% | Fold Selectivity SMARCA4/2 (SMARCA2): 882
